The values below come from ChEMBL document CHEMBL1201862, “PubChem BioAssay data set” (2004).

Molecules are shown by their SMILES.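 Following 48 hours of exposure in 96-well plates, responses at five concentrations were used to interpolate endpoints linearly. GI50 marks 50% less growth.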 The source made the active and inactive calls. Rule as the data show it: active = GI50 up to about 1.1 µM and inactive = higher.

Among the test systems are A549; SK-MEL-2; SNB-75; HOP-62; MCF7; EKVX; SK-MEL-5; ACHN; SN12C; HT-29; K562; HCC 2998; HCT-116; SK-OV-3; SF-539; OVCAR-8; UACC-62; BT-549; SF-295.
What all share (assay): NCI anticancer screen, dose series, 48 h

`O=C1N[C@H]2C(=O)c3c(Br)sc(Br)c3[C@H]2O1`: the GI50 is 19.4 µM (inactive) in the experiment on A549; 14.7 µM (inactive) in the experiment with SK-MEL-2; 16.5 µM (inactive) in the experiment with SNB-75; 16.2 µM (inactive) with HOP-62; 10.7 µM (inactive) with MCF7; 5.69 µM (inactive) with EKVX. In addition, the GI50 in the experiment on SK-MEL-5 was 14 µM (inactive); in the experiment with ACHN it was 6.78 µM (inactive); with SN12C it was 4.76 µM (inactive); in the experiment on HT-29 it was 2.47 µM (inactive); with K562, 2.66 µM (inactive); with HCC 2998, 11.7 µM (inactive). Moreover, the GI50 is 2.77 µM (inactive) in the experiment on HCT-116; 18.4 µM (inactive) in the experiment with SK-OV-3; 17.4 µM (inactive) with SF-539; 3.82 µM (inactive) with OVCAR-8; 13.6 µM (inactive) in the experiment on UACC-62; 14.5 µM (inactive) in the experiment on BT-549. Further, the GI50 in the experiment on SF-295 was 18.5 µM (inactive).
Regarding `CN(C)CCNC(=O)c1cccc2c(NC(CCC(N)=O)C(=O)O)c3ccccc3nc12` (centres undefined), the GI50 with A549 is 5.08 µM (inactive); with SK-MEL-2, 11.9 µM (inactive); in the experiment with SNB-75, 13.4 µM (inactive); with HOP-62, 6.4 µM (inactive); with MCF7 it was 4.55 µM (inactive); in the experiment with EKVX, 14.5 µM (inactive). Besides, the GI50 in the experiment with SK-MEL-5 is 10.6 µM (inactive); with ACHN, 3.37 µM (inactive); in the experiment on SN12C, 10.4 µM (inactive); with HT-29 it was 4.67 µM (inactive); in the experiment with K562 it was 4.4 µM (inactive); in the experiment on HCC 2998, 12.5 µM (inactive). Besides, the GI50 in the experiment with HCT-116 was 6.03 µM (inactive); in the experiment on SK-OV-3 it was 9.95 µM (inactive); with SF-539, 5.55 µM (inactive); with OVCAR-8, 9.18 µM (inactive); in the experiment on UACC-62, 19.9 µM (inactive); with BT-549, 10.5 µM (inactive). Further, in the experiment with SF-295, the GI50 was 5.64 µM (inactive).
For `O=C(Cc1nc2ccc([N+](=O)[O-])cc2nc1O)C(=O)Nc1cc(Cl)c(Cl)cc1Cl`, the GI50 in the experiment on A549 was > 100 µM (inactive); in the experiment on SK-MEL-2, > 100 µM (inactive); in the experiment on SNB-75, > 100 µM (inactive); with HOP-62 it was > 100 µM (inactive); with MCF7, > 100 µM (inactive); in the experiment on EKVX, 54.3 µM (inactive). For the same compound, the GI50 with SK-MEL-5, in the experiment on ACHN, with SN12C, with HT-29, in the experiment with HCC 2998 and in the experiment with HCT-116 was > 100 µM (inactive) throughout. Further, the GI50 was 71.3 µM (inactive) with SK-OV-3; > 100 µM (inactive) in the experiment with SF-539; > 100 µM (inactive) with OVCAR-8; > 100 µM (inactive) in the experiment on UACC-62; > 100 µM (inactive) in the experiment with BT-549; > 100 µM (inactive) with SF-295.
`COC(=O)[C@H](Cc1ccccc1)NC(=O)c1ccc(CNC(=O)/C=C/c2cccc(Oc3ccccc3)c2)cc1`: the GI50 in the experiment with A549 was > 100 µM (inactive); with SK-MEL-2 it was 10.3 µM (inactive); in the experiment with SNB-75, 34.8 µM (inactive); with HOP-62, 77.3 µM (inactive); in the experiment on MCF7, 12.8 µM (inactive); with EKVX, 30.8 µM (inactive). Also, the GI50 in the experiment with SK-MEL-5 is 16.3 µM (inactive); in the experiment with ACHN, 16.4 µM (inactive); in the experiment with SN12C, 26.1 µM (inactive); in the experiment with HT-29 it was 61.8 µM (inactive); in the experiment on K562, 7.08 µM (inactive); in the experiment with HCC 2998, 35.4 µM (inactive). Further, the GI50 is 37 µM (inactive) with HCT-116; 53.5 µM (inactive) in the experiment on SK-OV-3; 36.4 µM (inactive) in the experiment with OVCAR-8; 7.91 µM (inactive) with UACC-62; > 100 µM (inactive) with BT-549; 44.1 µM (inactive) with SF-295.
Take `CC1=CC(=O)[C@@H](O)[C@]2(C)[C@H]3[C@@]4(O)OC[C@]35[C@H]([C@@H](C)[C@H]4O)[C@@H](O)C(=O)O[C@@H]5C[C@@H]12`: the GI50 with A549 is 0.789 µM (active); in the experiment with SK-MEL-2 it was 0.219 µM (active); with SNB-75, 0.0706 µM (active); with HOP-62, 0.21 µM (active); with MCF7 it was 0.0382 µM (active); in the experiment on EKVX, 0.771 µM (active). The GI50 is 0.118 µM (active) in the experiment with SK-MEL-5; 0.348 µM (active) with ACHN; 0.387 µM (active) in the experiment with HT-29; 0.475 µM (active) in the experiment with K562; 0.227 µM (active) with HCC 2998; 0.0428 µM (active) with HCT-116. For the same compound, the GI50 was 0.607 µM (active) in the experiment on SK-OV-3; 0.0743 µM (active) in the experiment on SF-539; 0.279 µM (active) in the experiment on OVCAR-8; 0.312 µM (active) in the experiment with UACC-62; 0.318 µM (active) in the experiment on BT-549; 0.339 µM (active) with SF-295.
As to `Cc1ccc(OCC2OC(n3cnc4nc(Nc5ccc(Cl)c(Cl)c5)nc(Cl)c43)CC2Oc2ccc(C)cc2)cc1` (centres undefined), the GI50 is > 100 µM (inactive) in the experiment on A549; > 100 µM (inactive) in the experiment on SK-MEL-2; > 100 µM (inactive) in the experiment with SNB-75; > 100 µM (inactive) in the experiment with HOP-62; > 100 µM (inactive) in the experiment on MCF7; 53.7 µM (inactive) in the experiment on EKVX. In addition, the GI50 with SK-MEL-5, in the experiment with ACHN, with SN12C, in the experiment on HT-29, in the experiment on K562 and in the experiment on HCC 2998 was > 100 µM (inactive) in each case. In addition, the GI50 with HCT-116, in the experiment with SK-OV-3, in the experiment with OVCAR-8, with UACC-62, in the experiment on BT-549 and with SF-295 was > 100 µM (inactive) throughout.
Take `Cc1ccc(S(=O)(=O)Nc2nnc(S(N)(=O)=O)s2)cc1`: the GI50 with A549, in the experiment on SK-MEL-2, in the experiment with HOP-62, in the experiment with MCF7, in the experiment with EKVX and with SK-MEL-5 was > 100 µM (inactive) each time. The GI50 with ACHN, with SN12C, with K562, with HCC 2998, in the experiment with HCT-116 and in the experiment with SK-OV-3 was > 100 µM (inactive) each time. For the same compound, the GI50 with OVCAR-8, in the experiment with UACC-62, with BT-549 and in the experiment with SF-295 was > 100 µM (inactive) in each case.
Regarding `COC(=O)CC[N+]1=CCC(c2ccccc2)(c2ccccc2)O1`, the GI50 in the experiment with A549, in the experiment with SK-MEL-2, in the experiment on HOP-62, in the experiment on MCF7, in the experiment on EKVX and in the experiment with SK-MEL-5 was > 100 µM (inactive) throughout. Besides, the GI50 with ACHN, in the experiment with SN12C, in the experiment with HT-29, in the experiment with K562, in the experiment with HCC 2998 and in the experiment on HCT-116 was > 100 µM (inactive) throughout. Besides, the GI50 in the experiment with SK-OV-3, with SF-539, in the experiment with OVCAR-8, in the experiment with UACC-62, with BT-549 and in the experiment on SF-295 was > 100 µM (inactive) in each case.
